Test results: patent US20160095867A1, “BET INHIBITION THERAPY FOR HEART DISEASE” (DANA-FARBER CANCER INSTITUTE, INC., priority 2013, published 2016)

How the values were obtained:
[1] = Treadmill endurance exercise capacity in mice; assay type: in vivo, mouse; conditions: JQ1 50 mg/kg/day IP, 2-3 weeks (17 days)
Source text: (§1) For transthoracic echocardiography, mice were anesthetized with 1% inhalational isofluorane and imaged using the Vevo 770 High Resolution Imaging System (Visual Sonics, Inc.) and the RMV-707B 30 MHz probe. Measurements were obtained from M-mode sampling and integrated EKV images taken in the LV short axis at the mid-papillary level (Haldar et al., 2010). Measurements of pressure gradients across the constricted portion of the aorta were obtained by high frequency Doppler as previously described (Liu et al., 2012). Conscious tail-vein systolic blood pressure was measured using the BP2000 Blood Pressure Analysis System (Visitech Systems, Inc.) as recommended by the manufacturer. To allow mice to adapt to the apparatus, we performed daily blood pressure measurements for one week prior to beginning experiments. Treadmill endurance exercise testing was performed on a motorized mouse treadmill (Columbus Instruments) as previously described (Haldar et al., 2012).

[2] = Conscious tail-vein systolic blood pressure in mice; assay type: in vivo, mouse; conditions: JQ1 50 mg/kg/day IP, 17 days
Source text: as §1

[3] = target: T1, BRD4 (Rattus norvegicus, UniProt A0A8I6A216); test: ChIP-qPCR of BRD4 and Pol II at the IL6 proximal promoter in NRVM; assay type: cell-based; conditions: JQ1 500 nM, PE 100 μM, 90 min
T1 construct: endogenous in cells; host or cells: NRVM (primary neonatal rat ventricular cardiomyocytes)
Experimental: NRVM were plated in 15 cm dishes at 5×10^6 cells/dish. Chromatin pooled from approximately 15×10^6 NRVM were used for each immunoprecipitation. After indicated treatments, NRVM were fixed directly on the dish with 1% formaldehyde for 10 minutes followed by quenching with 0.125M glycine for 5 minutes. Chromatin was extracted, followed by shearing on a BioRuptor (Diagenode; total 16 cycles, hi-power, 30 sec on/off). The sonicated chromatin was immunoprecipitated with 5 μg of antibody bound to Dynabeads (Invitrogen) followed by extensive washing and elution. Immunoprecipitate and input chromatin samples were then reverse cross-linked followed by purification of genomic DNA. Target and non-target regions of genomic DNA were amplified by qRT-PCR in both the immunoprecipitates and input samples using Sybrgreen chemistry. Enrichment data were analyzed by calculating the immunoprecipitated DNA percentage of input DNA for each sample as previously described (Ott et al., 2012). Antibodies used in ChIP were BRD4 (Bethyl #A301-985A) and RNA Polymerase II (Santa Cruz N-20, sc-899).

[4] = test system: mice with myocardial infarction (MI); test: Large anterior wall myocardial infarction (permanent proximal LAD ligation) model; assay type: in vivo, mouse; conditions: 25 or 50 mg/kg/day IP from postoperative day 5
Experimental: Mice were subjected to permanent proximal LAD ligation to create a large anterior wall myocardial infarction (MI). JQ1 or vehicle was begun at the indicated doses (25 mg/kg/day or 50 mg/kg/day, intraperitoneal injection) on postoperative day 5. […] JQ1 attenuates the development of (FIGS. 12B and 15B) LV systolic dysfunction, (FIGS. 12C and 15C) LV cavity dilation, (FIGS. 12D and 15D) LV wall thickening, and (FIGS. 12E and 15E) cardiomegaly after a large anterior wall myocardial infarction. (FIG. 12—N=5 per group; FIG. 15—N=5 in sham group, N=10 in MI group). […] After a myocardial infarction, abnormal remodeling of the heart occurs in distant areas of non-infarcted myocardium, leading to cardiac dilation, enlargement, and contractile dysfunction. This is a very common cause of heart failure. […] Neither this model nor the TAC models involve atherosclerosis. Therefore, the ability to protect the heart in these settings are unrelated to any effects on atherosclerosis.

[5] = test system: NRVM; test: PE-mediated cardiomyocyte hypertrophy in NRVM (cell area measurement); assay type: cell-based, rat; conditions: nanomolar doses of JQ1 (250 nM), PE 100 μM, 48 hours
Experimental: NRVM were isolated from the hearts of 2 day old Sprague-Dawley rat pups (Charles River) and maintained under standard conditions as described (Haldar et al., 2010). The cells were differentially plated for 1.5 h in cell culture dishes to remove contaminating non-myocytes. Unless otherwise stated, NRVM were plated at a density of 10^5 cells/mL. Cells were initially plated in growth medium (DMEM supplemented with 5% FBS, 100 U/mL penicillin-streptomycin, and 2 mM L-glutamine) for 24-36 hours and maintained in serum-free media thereafter (DMEM supplemented with 0.1% BSA, 1% insulin-transferrin-selenium liquid media supplement (Sigma 13146), 100 U/mL penicillin-streptomycin, and 2 mM L-glutamine). Media was changed every 2-3 days. Prior to stimulation with agonists, NRVM were maintained in serum-free medium for 48-72 hours. For hypertrophic stimulation, NRVM were incubated with JQ1 versus DMSO at indicated concentrations for 6 h followed by stimulation with PE (100 μM) for indicated timepoints.
NRVM were plated on glass coverslips in 6-well dishes at a density of 10^5 cells/mL. After treatments, cells were briefly fixed in PBS containing 2% PFA, permeabilized with PBST/0.1% Triton X-100, and blocked in PBST/5% horse serum. Primary antibody was anti-sarcomeric α-actinin (Sigma A7811) at 1:800. Fluorophore-tagged anti-mouse secondary antibody (α-mouse Alexa 488 green) was used at 1:1000 dilution. Coverslips were mounted on glass slides with mounting media containing DAPI. Quantitation of cardiomyocyte cell surface area was performed on α-actinin-stained cardiomyocytes using fluorescent microscopy and NIH Image J software as previously described (Liang et al., 2001). Analysis consisted of at least 100 cardiomyocytes in 20-30 fields at 400× magnification. This process was replicated in a least three independent experiments, and the data were combined.

Question: For `Cc1sc2c(c1C)C(c1ccc(Cl)cc1)=N[C@@H](CC(=O)OC(C)(C)C)c1nnc(C)n1-2` [JQ1], which “endurance exercise capacity (time to exhaustion)” value [1] is on record?
Answer: preserved endurance exercise capacity

Question: What about the systemic blood pressure [2] of the same molecule?
Answer: does not affect

Question: What about the “recruitment of endogenous BRD4 and Pol II to the proximal promoter of IL6 in response to PE” value [3] of the same molecule?
Answer: blocked this recruitment

Question: And the “development of LV cavity dilation after MI” value [4]?
Answer: attenuates

Question: And the “development of LV systolic dysfunction after MI” value [4]?
Answer: attenuates

Question: What about the “development of LV wall thickening after MI” value [4] of the same molecule?
Answer: attenuates

Question: What about the “development of cardiomegaly after MI” value [4] of the same molecule?
Answer: attenuates

Question: And the “mortality, myocardial rupture, LV aneurysm formation vs. vehicle control” value [4]?
Answer: No excess mortality, myocardial rupture, and LV aneurysm formation

Question: What about the “phenylephrine (PE) mediated cellular hypertrophy (cardiomyocyte area)” value [5] of the same molecule?
Answer: significantly blocked
